Test results reported in PubChem BioAssay (NCI).
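Method: 48-hour compound exposure of cells in 96-well plates, five concentrations, linear interpolation of endpoints. TGI is the concentration that stops growth completely.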 Where a SMILES comes first, the peptide text is derived from it. The star is where a group is joined. Boc = CC(C)(C)OC(=O)*; tBu = CC(C)(C)*

What was measured:
Assay in all cases: NCI anticancer screen, dose series, 48 h
OVCAR-3 ovarian = tested on: OVCAR-3 ovarian
U251 CNS = tested on: U251 CNS
TK-10 renal = tested on: TK-10 renal
EKVX NSCLC = tested on: EKVX NSCLC
OVCAR-8 ovarian = tested on: OVCAR-8 ovarian
HCT-15 colon = tested on: HCT-15 colon
M14 melanoma = tested on: M14 melanoma
HOP-62 NSCLC = tested on: HOP-62 NSCLC
SF-268 CNS = tested on: SF-268 CNS
CAKI-1 renal = tested on: CAKI-1 renal

Nc1ncnc2c1N=C(c1ccccc1)CC(c1ccccc1)N2 (stereo not given)
TGI (OVCAR-3 ovarian): > 100 µM | TGI (U251 CNS): > 100 µM | TGI (TK-10 renal): > 100 µM | TGI (EKVX NSCLC): > 100 µM | TGI (OVCAR-8 ovarian): > 100 µM | TGI (HCT-15 colon): > 100 µM | TGI (M14 melanoma): > 100 µM | TGI (HOP-62 NSCLC): > 100 µM | TGI (SF-268 CNS): > 100 µM | TGI (CAKI-1 renal): > 100 µM

Brc1ccc(-c2nc(-c3ccc(Br)cc3)n(-c3ccccc3)n2)cc1
TGI (OVCAR-3 ovarian): > 100 µM | TGI (U251 CNS): > 100 µM | TGI (TK-10 renal): > 100 µM | TGI (EKVX NSCLC): > 100 µM | TGI (OVCAR-8 ovarian): > 100 µM | TGI (HCT-15 colon): > 100 µM | TGI (M14 melanoma): > 100 µM | TGI (HOP-62 NSCLC): > 100 µM | TGI (SF-268 CNS): > 100 µM | TGI (CAKI-1 renal): > 100 µM

O=C1c2ccccc2/C=C\C(c2ccccc2)=N/N1c1ccccc1Cl
TGI (OVCAR-3 ovarian): > 100 µM | TGI (U251 CNS): 63.5 µM | TGI (TK-10 renal): > 100 µM | TGI (EKVX NSCLC): > 100 µM | TGI (OVCAR-8 ovarian): > 100 µM | TGI (HCT-15 colon): > 100 µM | TGI (M14 melanoma): 51.2 µM | TGI (HOP-62 NSCLC): 92.8 µM | TGI (SF-268 CNS): > 100 µM | TGI (CAKI-1 renal): 54.5 µM

CC(N)=O.[Cl][Pt][Cl].[NH-]c1ccn(C2OC(CO)C(O)C2O)c(=O)n1 (stereo not given)
TGI (OVCAR-3 ovarian): > 100 µM | TGI (U251 CNS): > 100 µM | TGI (TK-10 renal): > 100 µM | TGI (EKVX NSCLC): > 100 µM | TGI (OVCAR-8 ovarian): > 100 µM | TGI (HCT-15 colon): > 100 µM | TGI (M14 melanoma): > 100 µM | TGI (HOP-62 NSCLC): > 100 µM | TGI (SF-268 CNS): > 100 µM | TGI (CAKI-1 renal): > 100 µM

Cc1cc(NS(=O)(=O)c2ccc(NC(=O)c3ccc4nc5ccccc5c(Nc5ccc(S(=O)(=O)Nc6cc(C)on6)cc5)c4c3)cc2)no1
TGI (OVCAR-3 ovarian): > 50 µM | TGI (U251 CNS): > 50 µM | TGI (TK-10 renal): > 50 µM | TGI (EKVX NSCLC): > 50 µM | TGI (OVCAR-8 ovarian): > 50 µM | TGI (HCT-15 colon): > 50 µM | TGI (M14 melanoma): > 50 µM | TGI (HOP-62 NSCLC): > 50 µM | TGI (SF-268 CNS): > 50 µM | TGI (CAKI-1 renal): > 50 µM

CC1=CC(=O)c2c(O)c3c(c(O)c2C1=O)C1C(O)C(C3=O)C23C(=O)c4c(O)c(C)cc(O)c4C(O)=C2C(=O)CC(O)C13 (stereo not given)
TGI (OVCAR-3 ovarian): 7.75 µM | TGI (U251 CNS): 15.9 µM | TGI (TK-10 renal): 11.6 µM | TGI (EKVX NSCLC): 8.21 µM | TGI (OVCAR-8 ovarian): 8.65 µM | TGI (HCT-15 colon): 6.91 µM | TGI (M14 melanoma): 10.5 µM | TGI (HOP-62 NSCLC): 6.21 µM | TGI (SF-268 CNS): 7.54 µM | TGI (CAKI-1 renal): 3.57 µM

O=S(=O)(c1ccc2ccccc2c1)N1CCN(S(=O)(=O)c2ccc3ccccc3c2)CC1
TGI (OVCAR-3 ovarian): > 100 µM | TGI (U251 CNS): > 100 µM | TGI (TK-10 renal): > 100 µM | TGI (EKVX NSCLC): > 100 µM | TGI (OVCAR-8 ovarian): > 100 µM | TGI (HCT-15 colon): > 100 µM | TGI (M14 melanoma): > 100 µM | TGI (HOP-62 NSCLC): > 100 µM | TGI (SF-268 CNS): > 100 µM | TGI (CAKI-1 renal): > 100 µM

Cc1cc(/N=C/c2ccc(Cl)cc2)n(-c2ccccc2)n1
TGI (OVCAR-3 ovarian): > 100 µM | TGI (U251 CNS): > 100 µM | TGI (TK-10 renal): > 100 µM | TGI (EKVX NSCLC): > 100 µM | TGI (OVCAR-8 ovarian): > 100 µM | TGI (HCT-15 colon): > 100 µM | TGI (M14 melanoma): > 100 µM | TGI (HOP-62 NSCLC): > 100 µM | TGI (SF-268 CNS): > 100 µM | TGI (CAKI-1 renal): > 100 µM

N=C(N)c1ccc(N=Nc2c(O)ccc3cc(O)ccc23)cc1
TGI (OVCAR-3 ovarian): > 100 µM | TGI (U251 CNS): > 100 µM | TGI (TK-10 renal): > 100 µM | TGI (EKVX NSCLC): > 100 µM | TGI (OVCAR-8 ovarian): > 100 µM | TGI (HCT-15 colon): > 100 µM | TGI (M14 melanoma): > 100 µM | TGI (HOP-62 NSCLC): > 100 µM | TGI (SF-268 CNS): > 100 µM | TGI (CAKI-1 renal): > 100 µM

CC(OC(C)(C)C)C(NC(=O)C(N)CCCCNC(=O)OC(C)(C)C)C(=O)NC(Cc1ccccc1)C(=O)O (stereo not given) (H-Lys(Boc)-Thr(tBu)-Phe-OH; configuration not given here)
TGI (OVCAR-3 ovarian): > 100 µM | TGI (U251 CNS): > 100 µM | TGI (TK-10 renal): > 100 µM | TGI (EKVX NSCLC): > 100 µM | TGI (OVCAR-8 ovarian): > 100 µM | TGI (HCT-15 colon): > 100 µM | TGI (M14 melanoma): > 100 µM | TGI (HOP-62 NSCLC): > 100 µM | TGI (SF-268 CNS): > 100 µM | TGI (CAKI-1 renal): > 100 µM

CCOP(=O)(/C=C\n1ccc(=O)[nH]c1=O)OCC
TGI (OVCAR-3 ovarian): > 100 µM | TGI (U251 CNS): > 100 µM | TGI (TK-10 renal): > 100 µM | TGI (EKVX NSCLC): > 100 µM | TGI (OVCAR-8 ovarian): > 100 µM | TGI (HCT-15 colon): > 100 µM | TGI (M14 melanoma): > 100 µM | TGI (HOP-62 NSCLC): > 100 µM | TGI (SF-268 CNS): > 100 µM | TGI (CAKI-1 renal): > 100 µM
